Results from patent US20230287044A1, “NOVEL ANTIBACTERIAL PEPTIDE AND USE THEREOF” (priority 2020, published 2023).
Values after ≈ are worked out from the molar mass of the structure shown. Like-named read-outs stand apart in the source and are kept apart here. Square brackets hold non-standard residues; d marks the D form. Peptide text beside a SMILES is read from it. * marks the point of attachment. NH(β-GlcNAc) = CC(=O)N[C@@H]1[C@@H](O)[C@H](O)[C@@H](CO)O[C@H]1N*; dTrp(5-OMe) = COc1ccc2[nH]cc(C[C@@H](N)C(=O)O)c2c1; Decanoyl = CCCCCCCCCC(=O)*; Hexanoyl = CCCCCC(=O)*

Legend:
[1] = tested on: MRPA (P. aeruginosa) CCARM 2180; type: cell-based, Pseudomonas aeruginosa
Procedure: (§1) The minimum growth inhibitory concentrations of the antibacterial peptides of the present invention weremeasured, and the results are shown in Table 3 below.
(§2) Specifically, the strains were grown in CAMHB until the midlog phase, and then diluted with PBS buffer to 1× 10^6 cfu/ml to prepare the bacterial solution, and the antibacterial peptide prepared in Example 1above was diluted with CAMHB to 80 µM, 40 µM, 20 µM, 10 µM, 5 µM, 2.5 µM, 1.25 µM and 0.63 µM, and then the bacterial solution was treated with the same volume.
(§3) The results are the average value of three independent experiments.

[2] = tested on: MRAB (A. baumannii) ATCC BAA 1605; type: cell-based, Acinetobacter baumannii
Procedure: as §1, §2, §3

[3] = tested on: MRSA (S. aureus) KCCM 40510; type: cell-based, Staphylococcus aureus; conditions: KCCM 40510, 18 h
Procedure: as §1, §2, §3

[4] = tested on: VRE (E. faecalis) ATCC 51575; type: cell-based, Enterococcus faecalis
Procedure: as §1, §2, §3

[5] = CAMHB, 37° C., 18 hours, average of three experiments

SMILES	MIC MRPA (P. aeruginosa) CCARM 2180 ([1]; CCARM 2180, 18 h) [µM]	MIC MRAB (A. baumannii) ATCC BAA 1605 ([2]; ATCC BAA 1605, 18 h) [µM]	MIC MRSA (S. aureus) KCCM 40510 [3] [µM]	MIC VRE (E. faecalis) ATCC 51575 ([4]; ATCC 51575, 18 h) [µM]	MIC MRPA (P. aeruginosa) CCARM 2180 [1, 5] [µM]	MIC MRAB (A. baumannii) ATCC BAA 1605 [2, 5] [µM]	MIC VRE (E. faecalis) ATCC 51575 [4, 5] [µM]
CCCCCCCCCC(=O)NCCCC[C@@H](NC(=O)[C@@H](CCCCN)NC(=O)[C@@H](CCCNC(=N)N)NC(=O)[C@@H](CC(C)C)NC(=O)[C@@H](C)NC(=O)[C@H](NC(=O)[C@@H](Cc1c[nH]c2ccccc12)NC(=O)[C@@H](CC(C)C)NC(=O)[C@@H](CC(C)C)NC(=O)[C@H](N)Cc1c[nH]c2ccccc12)[C@H](C)CC)C(=O)N[C@H](CCCNC(=N)N)C(N)=O [KSH4, wllwialrkkr] (H-[dW][dL][dL][dW][dI][dA][dL][dR][dK][dK](Decanoyl)[dR]-NH2; N-terminus assumed)	>40	>40	5 (≈ 8.18 µg/mL)	5 (≈ 8.18 µg/mL)	–	–	–
CCCCCCCCCC(=O)NCCCC[C@@H](NC(=O)[C@@H](CCCCN)NC(=O)[C@@H](CCCNC(=N)N)NC(=O)[C@@H](CC(C)C)NC(=O)[C@@H](C)NC(=O)[C@H](NC(=O)[C@@H](Cc1c[nH]c2ccccc12)NC(=O)[C@@H](CC(C)C)NC(=O)[C@@H](CC(C)C)NC(=O)[C@H](N)Cc1c[nH]c2ccccc12)[C@H](C)CC)C(N)=O [KSH7, wllwialrkk] (H-[dW][dL][dL][dW][dI][dA][dL][dR][dK][dK](Decanoyl)-NH2; N-terminus assumed)	>40	>40	10 (≈ 14.8 µg/mL)	10 (≈ 14.8 µg/mL)	–	–	–
CCCCCC(=O)NCCCC[C@@H](N)C(=O)N[C@H](Cc1c[nH]c2ccccc12)C(=O)N[C@H](CC(C)C)C(=O)N[C@H](CC(C)C)C(=O)N[C@H](Cc1c[nH]c2ccccc12)C(=O)N[C@@H](C(=O)NCC(=O)N[C@H](CC(C)C)C(=O)N[C@H](CCCNC(=N)N)C(=O)N[C@H](CCCCN)C(=O)N[C@H](CCCCN)C(=O)N[C@H](CCCNC(=N)N)C(N)=O)[C@H](C)CC [KSH9, kwllwiglrkkr] (H-[dK](Hexanoyl)[dW][dL][dL][dW][dI]G[dL][dR][dK][dK][dR]-NH2; N-terminus assumed)	10 (≈ 16.9 µg/mL)	5 (≈ 8.47 µg/mL)	1.25 (≈ 2.12 µg/mL)	1.25 (≈ 2.12 µg/mL)	–	–	–
CCCCCCCCCC(=O)NCCCC[C@@H](N)C(=O)N[C@H](Cc1c[nH]c2ccccc12)C(=O)N[C@H](CC(C)C)C(=O)N[C@H](CC(C)C)C(=O)N[C@H](Cc1c[nH]c2ccccc12)C(=O)N[C@@H](C(=O)NCC(=O)N[C@H](CC(C)C)C(=O)N[C@H](CCCNC(=N)N)C(=O)N[C@H](CCCCN)C(=O)N[C@H](CCCCN)C(=O)N[C@H](CCCNC(=N)N)C(N)=O)[C@H](C)CC [KSH10, kwllwiglrkkr] (H-[dK](Decanoyl)[dW][dL][dL][dW][dI]G[dL][dR][dK][dK][dR]-NH2; N-terminus assumed)	>20	>20	5 (≈ 8.75 µg/mL)	5 (≈ 8.75 µg/mL)	–	–	–
CC[C@@H](C)[C@@H](NC(=O)[C@@H](Cc1c[nH]c2ccccc12)NC(=O)[C@@H](CC(C)C)NC(=O)[C@@H](CC(C)C)NC(=O)[C@H](N)Cc1c[nH]c2ccc(OC)cc12)C(=O)NCC(=O)N[C@H](CC(C)C)C(=O)N[C@H](CCCNC(=N)N)C(=O)N[C@H](CCCCN)C(=O)N[C@H](CCCCN)C(=O)N[C@H](CCCNC(=N)N)C(N)=O [KSH15, wMllwiglrkkr] (H-[dTrp(5-OMe)][dL][dL][dW][dI]G[dL][dR][dK][dK][dR]-NH2; N-terminus assumed)	10 (≈ 15 µg/mL)	1.25 (≈ 1.87 µg/mL)	1.25 (≈ 1.87 µg/mL)	2.5 (≈ 3.74 µg/mL)	–	–	–
CC[C@@H](C)[C@@H](NC(=O)[C@@H](Cc1c[nH]c2ccccc12)NC(=O)[C@@H](C)NC(=O)[C@@H](C)NC(=O)[C@H](N)Cc1c[nH]c2ccccc12)C(=O)NCC(=O)N[C@H](CC(C)C)C(=O)N[C@H](CCCNC(=N)N)C(=O)N[C@H](CCCCN)C(=O)N[C@H](CCCCN)C(=O)N[C@H](CCCNC(=N)N)C(N)=O [KSH20, waawiglrkkr] (H-[dW][dA][dA][dW][dI]G[dL][dR][dK][dK][dR]-NH2; N-terminus assumed)	>40	–	>40	>40	–	–	–
CC[C@@H](C)[C@@H](NC(=O)[C@@H](Cc1c[nH]c2ccccc12)NC(=O)[C@@H](CCCNC(=N)N)NC(=O)[C@@H](CCCNC(=N)N)NC(=O)[C@@H](CCCNC(=N)N)NC(=O)[C@@H](N)CC(=O)N[C@@H]1O[C@H](CO)[C@@H](O)[C@H](O)[C@H]1NC(C)=O)C(=O)N[C@H](Cc1c[nH]c2ccccc12)C(=O)N[C@@H](C(=O)N[C@H](CC(C)C)C(=O)N[C@H](Cc1c[nH]c2ccccc12)C(=O)N[C@H](CCCCN)C(N)=O)C(C)C [KSH47, Nrrrwiwvlwk] (H-D(NH(β-GlcNAc))[dR][dR][dR][dW][dI][dW][dV][dL][dW][dK]-NH2; N-terminus assumed)	10 (≈ 18.2 µg/mL)	1.25 (≈ 2.27 µg/mL)	2.5 (≈ 4.54 µg/mL)	2.5 (≈ 4.54 µg/mL)	–	–	–
CC[C@@H](C)[C@@H](NC(=O)[C@@H](Cc1c[nH]c2ccccc12)NC(=O)[C@@H](CCCNC(=N)N)NC(=O)[C@@H](CCCNC(=N)N)NC(=O)[C@H](N)CCCNC(=N)N)C(=O)N[C@H](Cc1c[nH]c2ccccc12)C(=O)N[C@@H](C(=O)N[C@H](CC(C)C)C(=O)N[C@H](Cc1c[nH]c2ccccc12)C(=O)N[C@H](CCCCN)C(=O)N[C@@H](CC(=O)N[C@@H]1O[C@H](CO)[C@@H](O)[C@H](O)[C@H]1NC(C)=O)C(N)=O)C(C)C [KSH48, rrrwiwvlwkN] (H-[dR][dR][dR][dW][dI][dW][dV][dL][dW][dK]D(NH(β-GlcNAc))-NH2; N-terminus assumed)	2.5 (≈ 4.54 µg/mL)	0.63 (≈ 1.14 µg/mL)	2.5 (≈ 4.54 µg/mL)	2.5 (≈ 4.54 µg/mL)	–	–	–
CC(=O)N[C@@H]1[C@@H](O)[C@H](O)[C@@H](CO)O[C@H]1NC(=O)C[C@H](NC(=O)[C@@H](CCCNC(=N)N)NC(=O)[C@@H](CCCNC(=N)N)NC(=O)[C@@H](CCCNC(=N)N)NC(=O)[C@@H](Cc1c[nH]c2ccccc12)NC(=O)[C@H](NC(=O)[C@H](NC(=O)[C@@H](Cc1c[nH]cn1)NC(=O)[C@H](NC(=O)[C@H](NC(=O)[C@H](N)Cc1c[nH]c2ccccc12)C(C)C)C(C)C)C(C)C)C(C)C)C(N)=O [KSH49, wvvhvvwrrrN] (H-[dW][dV][dV][dH][dV][dV][dW][dR][dR][dR]D(NH(β-GlcNAc))-NH2; N-terminus assumed)	10 (≈ 17.1 µg/mL)	2.5 (≈ 4.27 µg/mL)	1.25 (≈ 2.14 µg/mL)	1.25 (≈ 2.14 µg/mL)	–	–	–
CC[C@@H](C)[C@@H](NC(=O)[C@@H](Cc1c[nH]c2ccccc12)NC(=O)[C@@H](CCCNC(=N)N)NC(=O)[C@@H](CCCNC(=N)N)NC(=O)[C@H](N)CCCNC(=N)N)C(=O)N[C@H](Cc1c[nH]c2ccccc12)C(=O)N[C@H](Cc1c[nH]c2ccccc12)C(=O)N[C@H](CC(C)C)C(=O)N[C@H](Cc1c[nH]c2ccccc12)C(=O)N[C@H](CCCCN)C(N)=O [KSH50, rrrwiwwlwk] (H-[dR][dR][dR][dW][dI][dW][dW][dL][dW][dK]-NH2; N-terminus assumed)	2.5 (≈ 3.96 µg/mL)	0.63 (≈ 0.999 µg/mL)	1.25 (≈ 1.98 µg/mL)	1.25 (≈ 1.98 µg/mL)	–	–	–
CC[C@@H](C)[C@@H](NC(=O)[C@@H](Cc1c[nH]c2ccccc12)NC(=O)[C@@H](CCCCN)NC(=O)[C@@H](CCCNC(=N)N)NC(=O)[C@H](N)CCCNC(=N)N)C(=O)N[C@H](Cc1c[nH]c2ccccc12)C(=O)N[C@H](Cc1c[nH]c2ccccc12)C(=O)N[C@H](CC(C)C)C(=O)N[C@H](Cc1c[nH]c2ccccc12)C(=O)N[C@H](CCCCN)C(N)=O [KSH51, rrkwiwwlwk] (H-[dR][dR][dK][dW][dI][dW][dW][dL][dW][dK]-NH2; N-terminus assumed)	5 (≈ 7.78 µg/mL)	1.25 (≈ 1.95 µg/mL)	1.25 (≈ 1.95 µg/mL)	1.25 (≈ 1.95 µg/mL)	–	–	–
CC[C@H](C)[C@H](NC(=O)CN)C(=O)NCC(=O)N[C@@H](C)C(=O)N[C@H](C(=O)N[C@@H](CC(C)C)C(=O)N[C@@H](CCCCN)C(=O)N[C@H](C(=O)N[C@@H](CC(C)C)C(=O)N[C@H](C(=O)N[C@H](C(=O)NCC(=O)N[C@@H](CC(C)C)C(=O)N1CCC[C@H]1C(=O)N[C@@H](C)C(=O)N[C@@H](CC(C)C)C(=O)N[C@H](C(=O)N[C@@H](CO)C(=O)N[C@@H](Cc1c[nH]c2ccccc12)C(=O)N[C@H](C(=O)N[C@@H](CCCCN)C(=O)N[C@@H](CCCNC(=N)N)C(=O)N[C@@H](CCCCN)C(=O)N[C@@H](CCCNC(=N)N)C(=O)N[C@@H](CCC(N)=O)C(=O)N[C@@H](CCC(N)=O)C(N)=O)[C@@H](C)CC)[C@@H](C)CC)[C@@H](C)O)[C@@H](C)O)C(C)C)C(C)C [Melittin, reference compound]	–	–	–	–	>40	1.25 (≈ 3.56 µg/mL)	1.25 (≈ 3.56 µg/mL)
